Laboratory results as given in ChEMBL document CHEMBL3046305, “Insecticidal and repellent action of allyl esters against Acyrthosiphon pisum (Hemiptera: Aphididae) and Tribolium castaneum (Coleoptera: Tenebrionidae)” (2013).
Converted amounts (≈) assume the structure as drawn. The source made the active and inactive calls. The calls are words filed in the database; no cut-off is given here.

Columns and labels:
Tribolium castaneum [1] = test: Insecticidal activity against Tribolium castaneum (red flour beetle) Herbst assessed as mortality treated topically at 0.24 mg/insect measured per insect after 24 hr; format: functional
Acyrthosiphon pisum [2] = test: Repellent effect in Acyrthosiphon pisum (pea aphid) at 0.1 ug/cm'2; format: functional, organism-based
Acyrthosiphon pisum [3] = test: Insecticidal activity against Acyrthosiphon pisum (pea aphid) assessed as mortality treated topically at 30 ug/insect measured after 24 hr; format: functional
Acyrthosiphon pisum [4] = test: Insecticidal activity against Acyrthosiphon pisum (pea aphid) treated artificial diet with compound for 3 days assessed as mortality; format: functional; conditions: for LC50: Acyrthosiphon pisum, 72 h
Acyrthosiphon pisum [5] = test: Insecticidal activity against Acyrthosiphon pisum (pea aphid) treated artificial diet with compound assessed as mortality at 0.7 mg/ml after 1 day; format: functional; conditions: 24 h
Acyrthosiphon pisum [6] = test: Insecticidal activity against Acyrthosiphon pisum (pea aphid) treated artificial diet with compound assessed as mortality at 0.1 mg/ml after 1 day; format: functional, organism-based
Tribolium castaneum [7] = test: Insecticidal activity against Tribolium castaneum (red flour beetle) assessed as mortality treated topically measured per insect after 24 hr; format: functional
Acyrthosiphon pisum [8] = test: Insecticidal activity against Acyrthosiphon pisum (pea aphid) treated artificial diet with compound assessed as mortality at 0.7 mg/ml after 3 days; format: functional; conditions: 72 h
Acyrthosiphon pisum [9] = test: Repellent effect in Acyrthosiphon pisum (pea aphid) at 10 ug/cm'2; format: functional
Tribolium castaneum [10] = test: Insecticidal activity against Tribolium castaneum (red flour beetle) assessed as mortality at 0.25 mg/insect; format: functional
Tribolium castaneum [11] = test: Repellent effect in Tribolium castaneum (red flour beetle) at 0.1 ug/cm'2 measured after 8 hr; format: functional, organism-based
Tribolium castaneum [12] = test: Repellent effect in Tribolium castaneum (red flour beetle) at 10 ug/cm'2 measured after 4 hr; format: functional
Tribolium castaneum [13] = test: Repellent effect in Tribolium castaneum (red flour beetle) at 10 ug/cm'2 measured after 24 hr; format: functional

SMILES | mortality (Tribolium castaneum [1]) | Activity (Acyrthosiphon pisum [2]) | mortality (Acyrthosiphon pisum [3]) | LC90 (Acyrthosiphon pisum [4]) | LC50 (Acyrthosiphon pisum [4]) | mortality at 700 µg/mL (Acyrthosiphon pisum [5]) | mortality (Acyrthosiphon pisum [6]) | LC50 (Tribolium castaneum [7]) | LC90 (Tribolium castaneum [7]) | mortality at 700 µg/mL (Acyrthosiphon pisum [8]) | Repellency (Acyrthosiphon pisum [9]) | LT50 (Tribolium castaneum [10]) | Activity (Tribolium castaneum [11]) | Repellency (Tribolium castaneum [12]) | Activity (Tribolium castaneum [12]) | Repellency (Tribolium castaneum [13])
C=CCOC(=O)c1ccco1 [ALLYL 2-FUROATE] | 45% | inactive | inactive | 2.9 mg/mL (≈ 19100 µM) | 210 µg/mL (≈ 1380 µM) | 52% | inactive | 0.2 mg | 0.46 mg | 68% |  |  |  |  |  | 
C=CCOC(=O)/C=C/c1ccccc1 [ALLYL CINNAMATE] | 45% |  | 75% | 0.18 mg/mL (≈ 956 µM) | 30 µg/mL (≈ 159 µM) | 86% | inactive | 0.2 mg | 0.28 mg | 100% | 34% | <2 h | Active | 80% |  | 
C=CCOC(=O)CCCCCC [ALLYL HEPTANOATE] | 45% | inactive | inactive | 1.16 mg/mL (≈ 6810 µM) |  | 53% | inactive |  | 0.32 mg | 72% |  | <2 h |  |  |  | 
C=CCOC(=O)CCCCC [ALLYL HEXANOATE] | 45% | inactive | inactive |  |  |  | inactive |  | 0.3 mg |  |  |  |  |  | inactive | 
C=CCOC(=O)CCCCCCC [ALLYL OCTANOATE] | 45% | inactive | inactive |  |  |  | inactive | 0.1 mg | 0.16 mg |  |  |  |  |  |  | 
CCN(CC)C(=O)c1cccc(C)c1 [DIETHYLTOLUAMIDE] |  |  |  |  |  |  |  |  |  |  | 50% |  |  | 60% |  | 84%
